Laboratory results reported in patent US20220380378A1 (ESSA Pharma, Inc., priority 2021, published 2022).
Where two headings read alike, the source gives them in different places.

Assays:
[1] = Microsomal stability assay, liver microsome half-life (monkey); assay type: in vitro ADME; conditions: pH 7.4; monkey liver microsomes 0.5 mg/mL, 1 μM compound, 37° C.; read-out: Liver microsome T1/2 Monkey
Excerpt: (§1) Microsomal Stability Assay: Microsomal stability assay is a widely used in vitro model to characterize the metabolic conversion by phase I enzymes, such as cytochrome P450 (CYP) enzymes. Since metabolism is known to be highly variable in different species, microsomal stability assay is commonly run in multiple species. Metabolic stability of testing compound can be evaluated using human, rat, mouse, or other animal liver or intestine microsomes to predict intrinsic clearance.
(§2) The assay was carried out in 96-well microtiter plates at 37° C. Reaction mixtures (25 μL) contained a final concentration of 1 μM test compound, 0.5 mg/mL liver microsomes protein, and 1 mM NADPH and/or 1 mM UDPGA (with alamethicin) in 100 mM potassium phosphate, pH 7.4 buffer with 3 mM MgCl2. The incubation was done with N=1, but duplicate incubation at each time point can be prepared if necessary. At each of the time points (for example, 0, 15, 30, and 60 minutes), 150 μL of quench solution (100% acetonitrile with 0.1% formic acid) with internal standard was transferred to each well. Besides the zero minute controls, mixtures containing the same components except the NADPH can also be prepared as the negative control. Verapamil was included as a positive control to verify assay performance. Plates were sealed, vortexed, and centrifuged at 4° C. for 15 minutes at 4000 rpm. The supernatant is transferred to fresh plates for LC/MS/MS analysis.
(§3) Summarized conditions: [Compound]=1 μM, [LM]=0.5 mg/mL, [NADPH]=1 mM and/or [UDPGA]=1 mM, Buffer=100 mM Potassium Phosphate, pH 7.4 with 3 mM MgCl2, Time=0, 15, 30, and 60 min, and Temperature=37° C.
(§4) All samples were analyzed on LC/MS/MS using an AB Sciex API 4000 instrument, coupled to a Shimadzu LC-20AD LC Pump system. Analytical samples were separated using a Waters Atlantis T3 dC18 reverse phase HPLC column (20 mm×2.1 mm) at a flow rate of 0.5 mL/min. The mobile phase consisted of 0.1% formic acid in water (solvent A) and 0.1% formic acid in 100% acetonitrile (solvent B).
(§5) The extent of metabolism is calculated as the disappearance of the test compound, compared to the 0-min time incubation. Initial rates are calculated for the compound concentration and used to determine half-life (t½).

[2] = Microsomal stability assay, liver microsome half-life (rat); assay type: in vitro ADME; conditions: pH 7.4; rat liver microsomes 0.5 mg/mL, 1 μM compound, 37° C.; read-out: Liver microsome T1/2 Rat
Excerpt: as §1, §2, §3, §4
(§6) The extent of metabolism is calculated as the disappearance of the test compound, compared to the 0-min time incubation. Initial rates are calculated for the compound concentration and used to determine half-life (t½). […]

[3] = Microsomal stability assay, liver microsome half-life (human); assay type: in vitro ADME; conditions: pH 7.4; human liver microsomes 0.5 mg/mL, 1 μM compound, 37° C.; read-out: Liver microsome T1/2 Human
Excerpt: as §1, §2, §3, §4, §6

[4] = Microsomal stability assay, liver microsome half-life (dog); assay type: in vitro ADME; conditions: pH 7.4; dog liver microsomes 0.5 mg/mL, 1 μM compound, 37° C.; read-out: Liver microsome T1/2 Dog
Excerpt: as §1, §2, §3, §4, §5

androgen receptor (AR) [5] = molecular target: T1, androgen receptor (AR) (Homo sapiens, UniProt P10275, T878A); test: Androgen-induced PSA (6.1 kb)-luciferase reporter assay in LNCaP cells (R1881 1 nM); assay type: cell-based; set-up: endogenous in cells; host or cells: LNCaP; conditions: 24 h, read-out: PSA-Luc IC50 Range
T1 sequence (P10275 1-920 T878A): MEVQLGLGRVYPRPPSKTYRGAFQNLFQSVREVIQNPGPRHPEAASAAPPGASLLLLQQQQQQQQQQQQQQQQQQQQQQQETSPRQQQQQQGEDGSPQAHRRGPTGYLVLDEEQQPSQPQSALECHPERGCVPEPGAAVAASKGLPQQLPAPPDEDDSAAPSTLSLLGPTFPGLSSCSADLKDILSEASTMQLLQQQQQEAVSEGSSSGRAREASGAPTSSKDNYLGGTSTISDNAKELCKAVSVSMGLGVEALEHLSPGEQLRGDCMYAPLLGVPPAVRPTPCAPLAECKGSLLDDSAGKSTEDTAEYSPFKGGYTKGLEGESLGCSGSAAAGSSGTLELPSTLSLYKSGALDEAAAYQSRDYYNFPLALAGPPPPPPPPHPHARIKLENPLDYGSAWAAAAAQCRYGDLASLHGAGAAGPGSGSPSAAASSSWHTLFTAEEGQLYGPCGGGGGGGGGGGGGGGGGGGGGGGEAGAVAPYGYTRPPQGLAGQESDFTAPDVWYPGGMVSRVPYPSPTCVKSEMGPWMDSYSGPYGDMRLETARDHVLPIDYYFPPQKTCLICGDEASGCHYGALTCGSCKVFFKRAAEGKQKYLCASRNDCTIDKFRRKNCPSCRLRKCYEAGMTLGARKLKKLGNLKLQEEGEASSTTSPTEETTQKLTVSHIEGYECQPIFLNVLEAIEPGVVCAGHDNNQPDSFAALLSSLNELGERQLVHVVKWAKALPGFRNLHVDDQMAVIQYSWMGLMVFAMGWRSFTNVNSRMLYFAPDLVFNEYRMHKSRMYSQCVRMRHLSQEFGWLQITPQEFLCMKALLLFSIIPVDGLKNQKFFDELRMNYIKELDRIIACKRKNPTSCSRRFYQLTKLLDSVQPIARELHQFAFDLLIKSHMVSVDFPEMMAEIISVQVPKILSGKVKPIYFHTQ
Procedure, shortened: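 LNCaP cells transiently transfected with PSA (6.1 kb)-luciferase for 24 h, pretreated 1 h with compound or DMSO, then stimulated with 1 nM R1881 for 24 h. Firefly luciferase in lysates normalized to protein content; IC50 relative to R1881-induced vehicle activity.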

[6] = Microsomal stability assay, liver microsome half-life (mouse); assay type: in vitro ADME; conditions: pH 7.4; mouse liver microsomes 0.5 mg/mL, 1 μM compound, 37° C.; read-out: Liver microsome T1/2 Mouse
Excerpt: as §1, §2, §3, §4, §6

androgen receptor (AR) [7] = molecular target: T1, androgen receptor (AR); test: Androgen-induced PSA (6.1 kb)-luciferase reporter assay in LNCaP cells (R1881 1 nM); assay type: cell-based; set-up: LNCaP cells were transiently transfected with the PSA (6.1 kb)-luciferase reporter for 24 h; endogenous in cells; host or cells: LNCaP; conditions: 24 h, read-out: PSA-Luc IC50 Range
Procedure: The PSA (6.1 kb)-luciferase reporter contains functional AREs (androgen response elements) to which AR binds in response to androgen to induce luciferase activity. LNCaP cells were transiently transfected with the PSA (6.1 kb)-luciferase reporter for 24 h, and then pretreated with vehicle (DMSO) or indicated concentration of representative compounds for one hour prior to the addition of synthetic androgen, R1881 (1 nM). After 24 h of incubation with R1881, the cells were harvested, and relative luciferase activities were determined (FIG. 1). To determine the IC50, treatments were normalized to vehicle control activity induced by R1881 (Table 2).
Luciferase Assay: Cells were lysed using Passive Lysis Buffer (Promega) and then collected into V-bottom 96-well tissue culture plates. Lysates were centrifuged at 4° C. for 5 minutes at 3000 rpm. To measure luminescence of LNCaP cell lysates the Firefly Luciferase Assay System (Promega) was employed, according to manufacturer's protocol. Relative luminescence units (RLU) in cell lysates were detected for 10 seconds using Promega GloMax-Multi Detection Luminometer (Promega). Values were normalized to protein content. GraphPad Prism graphing software was used to calculate IC50 values.
Statistical analyses were performed using GraphPad Prism (Version 6.01 for Windows; La Jolla, Calif., USA). […]

SMILES | half-life at 1 μM [1] | half-life at 1 μM [2] | half-life at 1 μM [3] | half-life at 1 μM [4] | IC50 (androgen receptor (AR) [5]) | half-life at 1 μM [6] | IC50 (androgen receptor (AR) [7])
CC(c1cc(Cl)c(OCCCl)c(C#N)c1)n1cc(-c2ccc3nc(NS(C)(=O)=O)ncc3c2)cn1 (stereo not shown) [Compound A141] | 1.1 h | > 2 h | > 2 h | > 2 h | > 2000 nM | > 2 h | –
CS(=O)(=O)Nc1nccc(COc2ccc3c(ncn3-c3cc(Cl)c(OCCCl)c(C#N)c3)c2Cl)n1 [Compound A46] | – | – | – | – | – | – | < 500 nM
CC(C)(c1ccc(OCc2ccnc(NS(C)(=O)=O)c2F)cc1)c1cc(Cl)c(OCCCl)c(C#N)c1 [Compound A48] | > 2 h | > 2 h | > 2 h | > 2 h | 500 to 2000 nM | > 2 h | –
CS(=O)(=O)NC1CN(CCc2ccc3c(ccn3-c3cc(Cl)c(OCCCl)c(C#N)c3)c2)C1 [Compound A126, N-(1-(2-(1-(3-chloro-4-(2-chloroethoxy)-5-cyanophenyl)-1H-indol-5-yl)ethyl)azetidin-3-yl)methanesulfonamide] | 0.583 h | 0.95 h | > 2 h | 0.733 h | 500 to 2000 nM | > 2 h | –
CC(C)(c1ccc(-c2ccc3c(c2)CCN(S(C)(=O)=O)C3)cc1)c1cc(Cl)c(OCCCl)c(C#N)c1 [Compound A114] | > 2 h | > 2 h | > 2 h | 1.05 h | 500 to 2000 nM | > 2 h | –
CS(=O)(=O)NC1CCN(CCc2ccc3c(ccn3-c3cc(Cl)c(OCCCl)c(C#N)c3)c2)CC1 [Compound A187] | 1.47 h | > 2 h | > 2 h | > 2 h | 500 to 2000 nM | > 2 h | –
CC(C)(c1ccc(-c2ccn3nc(NS(C)(=O)=O)nc3c2)cc1)c1cc(Cl)c(OCCCl)c(C#N)c1 [Compound A113] | > 2 h | > 2 h | 1.93 h | > 2 h | 500 to 2000 nM | > 2 h | –

More lines, now with the values ahead:

half-life at 1 μM [1] | half-life at 1 μM [2] | half-life at 1 μM [3] | half-life at 1 μM [4] | IC50 (androgen receptor (AR) [5]) | half-life at 1 μM [6] | IC50 (androgen receptor (AR) [7]) | SMILES
0.85 h | 1.63 h | > 2 h | > 2 h | 500 to 2000 nM | > 2 h | – | CC(C)(c1ccc(OCc2ccnc(NS(C)(=O)=O)n2)cc1)c1cc(F)c(N2CCOCC2)c(C#N)c1 [Compound A262]
> 2 h | > 2 h | > 2 h | > 2 h | < 500 nM | > 2 h | – | CS(=O)(=O)Nc1nccc(COc2ccc3c(ccn3-c3cc(Cl)c(OCCCl)c(C#N)c3)c2)n1 [Compound A36, N-(4-(((1-(3-chloro-4-(2-chloroethoxy)-5-cyanophenyl)-1H-indol-5-yl)oxy)methyl)pyrimidin-2-yl)methanesulfonamide]
0.117 h | > 2 h | 0.183 h | 0.967 h | < 500 nM | > 2 h | – | CS(=O)(=O)N1CC(COc2ccc3c(ccn3-c3cc(Cl)c(OCCCl)c(C#N)c3)c2)C1 [Compound A59]
> 2 h | > 2 h | > 2 h | > 2 h | < 500 nM | > 2 h | – | CC(C)(c1ccc(-c2ccc3nc(NS(C)(=O)=O)sc3c2)cc1)c1cc(Cl)c(OCCCl)c(C#N)c1 [Compound A274]
1.3 h | 1.08 h | 1.48 h | 1.32 h | 500 to 2000 nM | > 2 h | – | CS(=O)(=O)NC12CC(COc3ccc4c(c3)CCC4c3cc(Cl)c(OCCCl)c(C#N)c3)(C1)C2 (stereo not shown) [Compound A246]
> 2 h | > 2 h | > 2 h | > 2 h | < 500 nM | > 2 h | – | CC(C)(c1ccc(-c2ccc3nc(NS(C)(=O)=O)cnc3c2)cc1)c1cc(Cl)c(OCCCl)c(C#N)c1 [Compound A107, N-(6-(4-(2-(3-chloro-4-(2-chloroethoxy)-5-cyanophenyl)propan-2-yl)phenyl)quinoxalin-2-yl)methanesulfonamide]
> 2 h | > 2 h | > 2 h | > 2 h | < 500 nM | > 2 h | – | CC(C)(c1ccc(OCc2ccnc(NS(C)(=O)=O)n2)cc1)c1ccc(OCC(O)CCl)cc1 (stereo not shown) [Compound A150, N-(4-((4-(2-(4-(3-chloro-2-hydroxypropoxy)phenyl)propan-2-yl)phenoxy)methyl)pyrimidin-2-yl)methanesulfonamide]
